# From publication PMC9729826, “Hypoaminoacidemia underpins glucagon-mediated energy expenditure and weight loss” (Cell Reports Medicine, 2022)
# Starred links: 1 amine or outer side, 2 acyl side, 3 side chain; linkers in the order of their positions; H or OH if unused. Non-standard residues stand in square brackets, D forms with d. Residues, ends and D or L forms follow the SMILES beside them. Groups on a side chain read outwards from the residue. *: point of attachment. C18 diacid = O=C(O)CCCCCCCCCCCCCCCCC(=O)*; γGlu = O=C(O)[C@H](CCC(=O)[*:2])N[*:1]; Aib = CC(C)(N)C(=O)O
# Assays:
# Assay type in all cases: in vivo, mouse
# lean C57BL/6 mice = test: Blood glucose after a single dose in lean mice; conditions: 10 nmol/kg single intraperitoneal injection, up to 2 h, n = 6/group
# Description: Twelve weight-matched 12-week-old lean C57BL/6 mice were fasted for 2 h prior to a single intraperitoneal injection of 10 nmol/kg dose of G108 diluted in sterile HPLC water (pH > 7), or vehicle control alone. Tail venesection was performed at baseline, 15, 30, 60 and 120 min and blood glucose measured using a handheld GlucoRx meter. For hepatic carbohydrate and amino acid metabolism gene expression analysis, weight-matched 12-week-old lean C57BL/6 mice were subcutaneously administered with 20 nmol/kg G108 diluted in sterile HPLC water (pH > 7), or vehicle control via subcutaneous injection at 9 am (N = 8). All animals had ad libitum access to RM1 diet and water. Liver tissue was dissected at 24 h and stored at −80°C prior to hepatic gene expression analysis.
# Gcgr^Δliver mice = test: Chronic study in hepatic-specific glucagon receptor knockout mice; conditions: 5 nmol/kg s.c. daily, 14 days, n = 7-8/group
# Description: Age-matched (12-week-old) Gcgr^flox/flox:Alb-Cre + (Gcgr^Δliver) and Gcgr^flox/flox:Alb-Cre- (control) mice were subcutaneously administered daily with either 5 nmol/kg G108 or vehicle control (HPLC water) for 14 days (N = 7–8/group). All mice were single-housed and had ad libitum access to water and a standard (20 kcal%) protein diet (diet D11112201, Table S2). Food intake and body weight were measured daily prior to administration of peptide each day. EchoMRI analysis was carried out at baseline and day 14. Tail venesection was carried out 4-h post-dose on day 14. Blood samples were immediately transferred on ice, centrifuged at 2800 × g for 10 min prior to plasma total amino acid analysis.
# Food intake was measured daily using a dedicated weighing scale and topped up accordingly. Body weight was recorded at 9 am daily or every 48 h using the same weighing scale. Body composition was measured using an EchoMRI analyser at various timepoints during chronic studies. […] Each scan lasted approximately 90 s where lean mass and fat mass were recorded in grams. […]
# (§1) Plasma total amino acids were measured using fluorometric-based ELISA kits as described (MAK002, Sigma-Aldrich, Ab65347, Abcam). Plasma FGF21 was measured using a fluorescent based ELISA kit (ab229382, Abcam). Plasma triglyceride, cholesterol and leptin were measured using ELISA kits (ab65336, ab65390, ab199082, Abcam). […]
# [1] = test system: diet-induced obese (DIO) C57BL/6 mice; test: Total amino acid supplementation in G108-treated DIO mice; conditions: n = 8/group
# Description: Lean 10-week-old C57BL/6 mice (N = 32) were provided ad libitum a 60 kcal% high fat diet (diet D12492, Table S2) ad libitum for 8 weeks. Half of the animals were then provided with a high fat standard protein diet (D08091803, Table S2) or a high fat standard protein diet supplemented with additional total amino acids (SP + TAA diet, Formula 1, Table S3). From each diet group, animals were allocated to receive either 7.5 nmol/kg G108 or vehicle control (N = 8/group). The subsequent four treatment groups were as follows: Vehicle/SP diet, G108/SP diet, Vehicle/SP + TAA diet, G108/SP + TAA diet. Food intake and body weight was recorded every 48 h during the study. Baseline body composition analysis (EchoMRI) was carried out in addition body composition analysis on day 18. […]
# (§2) To measure energy expenditure, DIO mice were placed into a Comprehensive Laboratory Animal Monitoring System (CLAMS, Columbus instruments, Columbus, US). […] Food intake was also measured electronically without the need to remove food. […] Feed efficiency was calculated as mg body weight change per kJ consumed.
# as §1
# [2] = test system: diet-induced obese (DIO) C57BL/6 mice; test: Essential and non-essential amino acid supplementation in G108-treated DIO mice; conditions: 7.5 nmol/kg daily, 14 days, n = 8/group
# Description: Lean 10-week-old C57BL/6 mice (N = 48) were provided ad libitum with a 60 kcal% high fat diet (diet D12492, Table S2) for 8 weeks. They were then provided with either a high fat standard protein diet (SP) (D08091803), a high fat standard protein diet supplemented with essential amino acids (SP + EAA) (Formula 2, Table S3), or a high fat standard protein diet supplemented with non-essential amino acids (SP + NEAA) (Formula 3, Table S3), N = 16/group. Mice from each diet group received either 7.5 nmol/kg G108 or vehicle control resulting in the following six treatment groups, N = 8/group: Vehicle/SP, 7.5 nmol/kg G108/SP, Vehicle/SP +EAA, 7.5 nmol/kg G108/SP + EAA, Vehicle/SP + NEAA, 7.5 nmol/kg G108 + NEAA. Food intake and body weight was measured every 48 h. Prior to commencing their respective diets, baseline body composition analysis was (EchoMRI) was carried out in addition to body composition analysis on day 11. Tail venesection was carried out on day 13 of the study 4 h following respective treatments. […]
# as §2
structure (smiles),measurement,setting,value
CC[C@H](C)[C@H](NC(=O)[C@H](Cc1ccccc1)NC(=O)[C@H](CCC(=O)O)NC(=O)[C@H](CCC(N)=O)NC(=O)[C@H](C)NC(=O)[C@H](CCCNC(=N)N)NC(=O)[C@H](CCCCN)NC(=O)[C@H](C)NC(=O)[C@H](CC(=O)O)NC(=O)[C@H](CC(C)C)NC(=O)[C@H](Cc1ccc(O)cc1)NC(=O)[C@H](CCCNC(=N)N)NC(=O)[C@H](CO)NC(=O)[C@H](Cc1ccc(O)cc1)NC(=O)[C@H](CC(=O)O)NC(=O)[C@H](CO)NC(=O)[C@@H](NC(=O)[C@H](Cc1ccccc1)NC(=O)[C@@H](NC(=O)CNC(=O)[C@H](Cc1c[nH]cn1)NC(=O)C(C)(C)NC(=O)[C@@H](N)Cc1c[nH]cn1)[C@@H](C)O)[C@@H](C)O)C(=O)N[C@@H](CCC(=O)O)C(=O)N[C@@H](Cc1c[nH]c2ccccc12)C(=O)N[C@@H](CC(C)C)C(=O)N[C@@H](CC(C)C)C(=O)N[C@@H](CCC(N)=O)C(=O)N[C@@H](CO)C(=O)N[C@@H](Cc1c[nH]cn1)C(=O)N[C@@H](Cc1c[nH]cn1)C(=O)N[C@@H](CCC(N)=O)C(=O)N[C@@H](Cc1c[nH]cn1)C(=O)N[C@@H](Cc1c[nH]cn1)C(=O)N1CCC[C@H]1C(=O)N[C@@H](CO)C(=O)N1CCC[C@H]1C(=O)N1CCC[C@H]1C(=O)N1CCC[C@H]1C(=O)N[C@@H](CCCCNC(=O)[C@H](CC(N)=O)NC(=O)CC[C@H](NC(=O)CCCCCCCCCCCCCCCCC(=O)O)C(=O)O)C(N)=O [Peptide G108] (H-H[Aib]HGTFTSDYSRYLDAKRAQEFIEWLLQSHHQHHPSPPPK([Asn-γGlu-C18 diacid])-NH2; N-terminus and C-terminus assumed),blood glucose after a single dose,lean C57BL/6 mice,acute increase in blood glucose
same,"effects on body weight, lean mass and plasma amino acids in mice lacking the hepatic GCGR",Gcgr^Δliver mice,completely refractory
same,body weight on SP diet supplemented with total amino acids (SP + TAA),"[1]; 7.5 nmol/kg daily, 20 days",prevented G108-mediated weight loss independent of food intake
same,blood glucose over 4 hours after acute administration,"[1]; single 7.5 nmol/kg dose, following a transient increase",reduction in blood glucose that lasted several hours
same,effects on weight loss and feed efficiency on SP diet supplemented with either EAAs or NEAAs,[2],not suppressed
